Results taken from ChEMBL document CHEMBL2331128, “Nebulosides A-B, novel triterpene saponins from under-ground parts of Gypsophila arrostii Guss. var. nebulosa” (Bioorg Med Chem, 2013).
Active and inactive are the calls of the source. No cut-off for these calls is given here.

Assays:
[1] = system: ECV-304; test: Cytotoxicity against human ECV304 cells at 15 ug/ml after 72 hrs by XTT reduction assay; type: cell-based; settings: ecv-304, 72 h
[2] = system: ECV-304; test: Induction of type I ribosome-inactivating protein-mediated cytotoxicity of human ECV304 cells measured at 15 ug/ml after 72 hrs by XTT reduction assay; type: functional, cell-based

Structure (SMILES)	Activity [1]	Activity [2]
C[C@@H]1O[C@@H](O[C@H]2[C@H](OC(=O)[C@]34CCC(C)(C)C[C@H]3C3=CC[C@@H]5[C@@]6(C)CC[C@H](O[C@@H]7O[C@H](C(=O)O)[C@@H](O)[C@H](O[C@@H]8OC[C@@H](O)[C@H](O)[C@H]8O)[C@H]7O[C@@H]7O[C@H](CO)[C@H](O)[C@H](O)[C@H]7O[C@@H]7O[C@H](CO)[C@H](O)[C@H](O)[C@H]7O)[C@@](C)(C=O)[C@@H]6CC[C@@]5(C)[C@]3(C)CC4)O[C@H](C)[C@@H](O)[C@@H]2O)[C@H](O)[C@H](O[C@@H]2O[C@H](CO)[C@@H](O)[C@H](O)[C@H]2O)[C@H]1O[C@@H]1OC[C@@H](O)[C@H](O[C@@H]2OC[C@@H](O)[C@H](O)[C@H]2O)[C@H]1O	Non-toxic	Active
C[C@@H]1O[C@@H](O[C@H]2[C@H](OC(=O)[C@]34CCC(C)(C)C[C@H]3C3=CC[C@@H]5[C@@]6(C)CC[C@H](O[C@@H]7O[C@H](C(=O)O)[C@@H](O)[C@H](O[C@@H]8OC[C@@H](O)[C@H](O)[C@H]8O)[C@H]7O[C@@H]7O[C@H](CO)[C@H](O)[C@H](O)[C@H]7O)[C@@](C)(C=O)[C@@H]6CC[C@@]5(C)[C@]3(C)C[C@H]4O)O[C@H](C)[C@@H](O)[C@@H]2O)[C@H](O)[C@H](O[C@@H]2O[C@H](CO)[C@@H](O)[C@H](O)[C@H]2O)[C@H]1O[C@@H]1OC[C@@H](O)[C@H](O[C@@H]2OC[C@@H](O)[C@H](O)[C@H]2O)[C@H]1O	Non-toxic	Active
